Assays:
[1] = compound: C1CN(CCC1(C(=O)N[C@@H](CCO)C2=CC=C(C=C2)Cl)N)C3=NC=NC4=C3C=CN4 [Capivasertib]; conditions: max 10 µM
Summary of the method: (§1)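 Cancer cell lines were seeded into 1536-well plates in 7.5 μl medium (DMEM/F12 or RPMI, 10% FBS), held 24 hours at 37°C and 5% CO2, and dosed for 72 hours with final DMSO typically 0.2%. Luminescence from CellTiter-Glo 2.0, scaled between blank-well and DMSO-well means, served as viability. The single-agent IC50 was obtained from dose-response fits with a non-linear mixed effects model, each fit being a two-parameter logistic curve.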

[2] = compound: C=CCn1c(=O)c2cnc(Nc3ccc(N4CCN(C)CC4)cc3)nc2n1-c1cccc(C(C)(C)O)n1 [AZD1775]
Summary of the method: as §1

[3] = compound: CC(=O)Nc1cccc(-n2c(=O)n(C3CC3)c(=O)c3c(Nc4ccc(I)cc4F)n(C)c(=O)c(C)c32)c1 [Trametinib]; conditions: max 1 µM
Summary of the method: as §1

[4] = compound: CC(=O)c1c(C)c2cnc(Nc3ccc(N4CCNCC4)cn3)nc2n(C2CCCC2)c1=O [Palbociclib]; conditions: max 10 µM
Summary of the method: as §1

[5] = compound: CC(C)n1c(=O)n(C)c2cnc3cc(F)c(-c4ccc(OCCCN5CCCCC5)nc4)cc3c21 [AZD1390]; conditions: max 0.3 µM
Summary of the method: as §1

[6] = compound: CC1(C)CCC(CN2CCN(c3ccc(C(=O)NS(=O)(=O)c4ccc(NCC5CCOCC5)c([N+](=O)[O-])c4)c(Oc4cnc5[nH]ccc5c4)c3)CC2)=C(c2ccc(Cl)cc2)C1 [Venetoclax]; conditions: max 1 µM
Summary of the method: as §1

[7] = compound: CC1=C(C(=CC=C1)Cl)NC(=O)C2=CN=C(S2)NC3=CC(=NC(=N3)C)N4CCN(CC4)CCO [Dasatinib]; conditions: max 2 µM
Summary of the method: as §1

[8] = compound: CC1=CN2[C@@H](C1)C=NC3=CC(=C(C=C3C2=O)OC)OCCCCCOC4=C(C=C5C(=C4)N=C[C@@H]6CC(=CN6C5=O)C)OC [SG3199]; conditions: max 0.001 µM
Summary of the method: as §1

[9] = compound: CCN(CCO)CCCOc1ccc2c(Nc3cc(CC(=O)Nc4cccc(F)c4)[nH]n3)ncnc2c1 [AZD2811]; conditions: max 1 µM
Summary of the method: as §1

[10] = compound: CCc1c2c(nc3ccc(O)cc13)-c1cc3c(c(=O)n1C2)COC(=O)[C@]3(O)CC [SN-38]; conditions: max 0.3 µM
Summary of the method: as §1

[11] = compound: CN(C)CCCOc1ccc(-c2ccc3ncc4c(c3c2)n(C2CCOCC2)c(=O)n4C)cn1 [AZD0156]
Summary of the method: as §1

[12] = compound: CN(CC[C@H](CSC1=CC=CC=C1)NC2=C(C=C(C=C2)S(=O)(=O)NC(=O)C3=CC=C(C=C3)N4CCC(CC4)[C@H](C5=CC=CC=C5C6=CC=C(C=C6)Cl)O)S(=O)(=O)C(F)(F)F)CCO [AZD4320]; conditions: max 1 µM
Summary of the method: as §1

[13] = compound: COc1cc(Nc2ncc3c(n2)-c2ccc(Cl)cc2C(c2c(F)cccc2OC)=NC3)ccc1C(=O)O [Alisertib]; conditions: max 10 µM
Summary of the method: as §1

[14] = compound: COc1cc2ncnc(Nc3ccc(F)c(Cl)c3)c2cc1OCCCN1CCOCC1 [Gefitinib]; conditions: max 10 µM
Summary of the method: as §1

[15] = compound: COc1cccc(OCCCN)c1-c1cc(Nc2cnc(C#N)cn2)n[nH]1 [Prexasertib]; conditions: max 1 µM
Summary of the method: as §1

[16] = compound: COc1cccc2c1C(=O)c1c(O)c3c(c(O)c1C2=O)C[C@@](O)(C(=O)CO)C[C@@H]3O[C@H]1C[C@H](N)[C@H](O)[C@H](C)O1 [Doxorubicin]; conditions: max 1 µM
Summary of the method: as §1

[17] = compound: COc1nnc2ccc(N3CCC(c4ccc(OCCN5CCN(C)C(=O)[C@H]5C)cc4)CC3)nn12 [AZD5153]; conditions: max 1 µM
Summary of the method: as §1

[18] = compound: CS(=O)(=O)CCNCc1ccc(-c2ccc3ncnc(Nc4ccc(OCc5cccc(F)c5)c(Cl)c4)c3c2)o1 [Lapatinib]; conditions: max 10 µM
Summary of the method: as §1

[19] = compound: C[C@@H](Nc1cc(F)cc(F)c1)c1cc(C(=O)N(C)C)cc2c(=O)cc(N3CCOCC3)oc12 [AZD8186]; conditions: max 3 µM
Summary of the method: as §1

[20] = compound: C[C@@H](Oc1cc(-c2cnn(C3CCNCC3)c2)cnc1N)c1c(Cl)ccc(F)c1Cl [Crizotinib]; conditions: max 10 µM
Summary of the method: as §1

[21] = compound: C[C@@H](c1ccc2nccn2c1)n1nnc2ncc(-c3cnn(C)c3)nc21 [Savolitinib]; conditions: max 1 µM
Summary of the method: as §1

[22] = compound: C[C@@H]1COCCN1C2=NC(=NC(=C2)C3(CC3)[S@](=N)(=O)C)C4=C5C=CNC5=NC=C4 [AZD6738]; conditions: max 10 µM
Summary of the method: as §1

[23] = compound: Cc1c2c(nn1C)CSCc1cc(n(C)n1)CSc1cc(c3ccccc3c1)OCCCc1c(C(=O)O)n(C)c3c-2c(Cl)ccc13 [AZD5991]; conditions: max 1 µM
Summary of the method: as §1

[24] = compound: Cc1cc2ncnn2cc1Nc1ncc2c(n1)n(C1CCOCC1)c(=O)n2C [AZD7648]; conditions: max 10 µM
Summary of the method: as §1

[25] = compound: Cc1nc(-c2cn3c(n2)-c2ccc(-c4cnn(C(C)(C)C(N)=O)c4)cc2OCC3)n(C(C)C)n1 [Taselisib]; conditions: max 10 µM
Summary of the method: as §1

[26] = compound: Cn1cnc2c(F)c(Nc3ccc(Br)cc3Cl)c(C(=O)NOCCO)cc21 [Selumetinib]; conditions: max 10 µM
Summary of the method: as §1

[27] = compound: NC1(c2ccc(-c3nc4ccn5c(=O)[nH]nc5c4cc3-c3ccccc3)cc2)CCC1 [MK-2206]; conditions: max 10 µM
Summary of the method: as §1

[28] = compound: O=C(c1cc(Cc2n[nH]c(=O)c3ccccc23)ccc1F)N1CCN(C(=O)C2CC2)CC1 [Olaparib]; conditions: max 10 µM
Summary of the method: as §1

Cell Line | IC50, cell viability 72 h [1] | IC50, cell viability 72 h ([2]; max 3 µM) | IC50, cell viability 72 h [3] | IC50, cell viability 72 h [4] | IC50, cell viability 72 h [5] | IC50, cell viability 72 h [6] | IC50, cell viability 72 h [7] | IC50, cell viability 72 h [8] | IC50, cell viability 72 h [9] | IC50, cell viability 72 h [10] | IC50, cell viability 72 h ([11]; max 3 µM) | IC50, cell viability 72 h [12] | IC50, cell viability 72 h [13] | IC50, cell viability 72 h [14] | IC50, cell viability 72 h [15] | IC50, cell viability 72 h [16] | IC50, cell viability 72 h [17] | IC50, cell viability 72 h [18] | IC50, cell viability 72 h [19] | IC50, cell viability 72 h [20] | IC50, cell viability 72 h [21] | IC50, cell viability 72 h [22] | IC50, cell viability 72 h [23] | IC50, cell viability 72 h [24] | IC50, cell viability 72 h [25] | IC50, cell viability 72 h [26] | IC50, cell viability 72 h [27] | IC50, cell viability 72 h [28] | IC50, cell viability 72 h ([2]; max 1 µM) | IC50, cell viability 72 h ([11]; max 1 µM)
TGBC24TKB (Biliary Tract Carcinoma) | > 10 µM | 815 nM | 933 nM | > 10 µM | > 300 nM | > 1000 nM | > 2000 nM | > 1 nM | 923 nM | > 300 nM | > 3000 nM | > 1000 nM | 1860 nM | > 10 µM | 49.4 nM | > 1000 nM | 665 nM | 8.01 µM | > 3000 nM | 9.9 µM | > 1000 nM | 7400 nM | > 1000 nM | > 10 µM | 0.561 µM | > 10 µM | > 10 µM | > 10 µM |  | 
HCC2157 (Breast Carcinoma) | 0.307 µM | > 3000 nM | > 1000 nM | > 10 µM | > 300 nM | > 1000 nM | > 2000 nM | > 1 nM | 182 nM | 14.1 nM | > 3000 nM | 72.1 nM | 454 nM | 4.41 µM | 22.5 nM | > 1000 nM | 12.6 nM | 0.0602 µM | 667 nM | 4.09 µM | > 1000 nM | 2490 nM | 24.4 nM | > 10 µM | 0.222 µM | > 10 µM |  | > 10 µM |  | 
SUIT-2 (Pancreatic Carcinoma) | > 10 µM | 1860 nM | 478 nM | > 10 µM | > 300 nM | > 1000 nM | > 2000 nM | > 1 nM | > 1000 nM | 32.6 nM | > 3000 nM | > 1000 nM | > 10000 nM | > 10 µM | 178 nM | > 1000 nM | > 1000 nM | > 10 µM | > 3000 nM | > 10 µM | > 1000 nM | > 10000 nM | > 1000 nM | > 10 µM | > 10 µM | > 10 µM | > 10 µM | > 10 µM |  | 
697 (B-Lymphoblastic Leukemia) | 3.24 µM | 149 nM | 662 nM | 0.263 µM | > 300 nM | 14.3 nM | 677 nM | > 1 nM | 14.6 nM | 3.34 nM | 2070 nM | 6.75 nM | 33.3 nM | > 10 µM | 4.5 nM | 17.3 nM | 14.2 nM | 6.95 µM | > 3000 nM | 1.1 µM | > 1000 nM | 336 nM | 48.9 nM | 9.41 µM | 3.94 µM | > 10 µM |  | 1.41 µM |  | 
NCI-H1694 (Small Cell Lung Carcinoma) | > 10 µM |  | > 1000 nM | > 10 µM | > 300 nM | > 1000 nM | > 2000 nM | > 1 nM | > 1000 nM | 3.95 nM |  | 462 nM | > 10000 nM | > 10 µM | 66.9 nM | 727 nM | > 1000 nM | > 10 µM | > 3000 nM | > 10 µM | > 1000 nM | 9060 nM | 109 nM | > 10 µM | > 10 µM | > 10 µM |  | > 10 µM | > 1000 nM | > 1000 nM
EM-2 (Chronic Myelogenous Leukemia) | > 10 µM | 295 nM | 350 nM | > 10 µM | > 300 nM | > 1000 nM | 2.28 nM | > 1 nM | 21.9 nM | 5.12 nM | > 3000 nM | 34.2 nM | 1060 nM | > 10 µM | 5.51 nM | 104 nM | 61.6 nM | > 10 µM | > 3000 nM | 0.859 µM | > 1000 nM | 1630 nM | > 1000 nM | > 10 µM | > 10 µM | 5.55 µM |  | > 10 µM |  | 

Reference: the supplement of paper PMC11061612
